Where two headings read alike, the source gives them in different places.
Assays:
[1] = test system: ZFL cells; assay: Cell exposure for bioaccumulation: Ccell, Cmedium and in vitro BCF (ratio and toxicokinetic fit); assay type: cell-based, zebrafish; details: for BCFexp, 24 h / BCFexp, 48 h / BCFexp, 72 h: Ccell,exp/Cmedium
Description: A total of 2 × 10^6 ZFL cells were plated in P100 glass dishes and incubated for 24 h under standard culture conditions. Subsequently, the culture medium was replaced with a contaminated medium, which, according to the cell viability assay, maintained viability above 70% by the end of the exposure period (Section 2.3). Cells were exposed to 1.8 and 2.6 mg⋅L^−1 for 24, 48 and 72 h, in two independent experiments. Parallel experiments were conducted under identical conditions to assess losses: one set included cells without contaminated medium, and another consisted of contaminated medium without cells (“no cells”). The obtained pellets were collected from all exposure time, dried under a gentle stream of nitrogen and weighed on a precision analytical balance (±0.00001 g). Finally, the dried cell pellets and their corresponding medium collected at all exposure times, including the starting medium (“t = 0 h”), were stored at −20 °C until analysis.
Extraction of BDE-47 and its metabolites was performed simultaneously for each of the samples, cells, and exposure media. Finally, 500 μL of exposure medium was extracted with 500 μL of hexane: MTBE mixture (1:1) shaken vigorously with a vortex for 30 s. For cells, the pellet obtained (~5 mg) was treated with same solvents but assisted with an ultrasound probe for 1 min at 30% of amplitude and a pulse on/off, with 2 s/5 s for cell samples. The internal standards (IS) BDE-99 and TCS had been previously added. The mixture was centrifuged for 10 min at 10,000 rpm. The organic phase was separated, and the extraction step was repeated. Remaining extracts were evaporated to dryness under a gentle stream of nitrogen and reconstituted in 200 μL isooctane. A total of 80 μL of the volume obtained was derivatized with 20 μL of MTBSTFA at 70 °C for 30 min in the oven and injected into GC-μECD-MS for the OH-BDE quantification. PBDEs and MeO-BDEs were determined by direct injection of the remaining volume of isooctane extracts into the GC-µECD-MS, because PBDEs are not stable after the derivatization process. Due to the difference in concentration in the samples of the metabolites and BDE-47, a double determination was performed and diluted with isooctane for the detection of the latter, so that it was interpolated on the same calibration curve.
The GC–MS-µECD system was used for the separation and determination of BDE-47 and its metabolites. The MS was used for the identification and the µECD for their quantification. Both detectors operate simultaneously, thanks to the use of a flow splitter placed at the end of the chromatographic column. Sample (1 μL) were injected in splitless mode at 280 °C. Helium was used as carrier gas at a constant pressure of 22 psi. Column temperature was programmed to increase from 130 °C (1 min) to 222 °C (1 min) at a rate of 90 °C·min^−1, then to 245 °C (1 min) at 1 °C·min^−1 and finally to 280 °C (8 min) at 45 °C·min^−1. The μECD temperature was set at 320 °C and nitrogen was used as makeup gas (30 mL·min^−1). The flow ratio of the splitter was 1:1, thanks to the helium input and the restrictor length of each detector, according to the manual supplied by Agilent Technologies. m/z values for the SIM program are collected in Table S1.
The first quantitative estimation of BCF was carried out according to the definition of BCF in the official OECD 305 guideline; that is, the ratio between the chemical concentration in the cells (Ccell) and the chemical concentration of the surrounding medium (Cmedium). As explained earlier, Ccell can be determined experimentally (Ccell,exp) or by MBM (Ccell,MBM). Both these terms can be related to the experimentally determined concentration in the medium (Cmedium), the free concentration experimentally determined (Cfree,exp) or the free concentration estimated using MBM (Cfree,MBM). […]

[2] = test system: rainbow trout; assay: IVIVE-BCF model with rainbow trout default parameters; assay type: in vitro ADME; details: k1 and k2 from experimental Ccell and Cfree
[3] = test system: zebrafish eleutheroembryos; design: method as in PMID 36705440; details: cited from earlier work
[4] = Cnominal 1.8 mg·L^−1, first-order toxicokinetic fit k1/k2

With Brc1ccc(Oc2ccc(Br)cc2Br)c(Br)c1 [BDE-47, 2,2′,4,4′-tetrabromodiphenyl ether] the “Recovery in the mass balance” value ([1]; 24 h, 1.8 mg·L^−1, BDE-47 plus metabolites in cells, medium and losses) was 77%, the “Recovery in the mass balance” value ([1]; 24 h, 2.6 mg·L^−1) was 79% and the “Recovery in the mass balance” value ([1]; 48 h, 1.8 mg·L^−1) was 70%. For the same compound, the “Recovery in the mass balance” value ([1]; 48 h, 2.6 mg·L^−1) was 82%, the “Recovery in the mass balance” value ([1]; 72 h, 1.8 mg·L^−1) was 74% and the “Recovery in the mass balance” value ([1]; 72 h, 2.6 mg·L^−1) was 97%. For the same compound, the “average decrease of Cmedium over time from nominal concentration” value ([1]; Cnominal 1.8 mg·L^−1) was 79%, the “BCFexp, 24 h” value ([1]; Cnominal 1.8 mg·L^−1) was 50 L/kg and the “BCFexp, 48 h” value ([1]; Cnominal 1.8 mg·L^−1) was 83 L/kg. For the same compound, the “BCFexp, 72 h” value ([1]; Cnominal 1.8 mg·L^−1) was 100 L/kg, the “BCFk Ccell exp/Cfree,exp” value [1, 4] was 74,300 L·kg^−1 and the “BCFk Ccell exp/Cw” value [1, 4] was 30 L/kg. For the same compound, the “average decrease of Cmedium over time from nominal concentration” value ([1]; Cnominal 2.6 mg·L^−1) was 33%, the “BCFexp, 24 h” value ([1]; Cnominal 2.6 mg·L^−1) was 51 L/kg and the “BCFexp, 48 h” value ([1]; Cnominal 2.6 mg·L^−1) was 55 L/kg. For the same compound, the “BCFexp, 72 h” value ([1]; Cnominal 2.6 mg·L^−1) was 80 L/kg, the “BCFk Ccell exp/Cfree,exp” value ([1]; Cnominal 2.6 mg·L^−1, first-order toxicokinetic fit k1/k2) was 63,435 L·kg^−1 and the “BCFIVIVE, RT, exp” value ([2]; Cnominal 1.8 mg·L^−1) was 26,306 L·kg^−1. The “BCFIVIVE, RT, exp” value ([2]; Cnominal 2.6 mg·L^−1) was 48,635 L·kg^−1, the BCF48 h ([3]; 1 µg·L^−1, zebrafish larvae) was 16,392 L·kg^−1 and the BCFk ([3]; 1 µg·L^−1, zebrafish larvae) was 36,363 L·kg^−1. For the same compound, the BCF48 h ([3]; 10 µg·L^−1, zebrafish larvae) was 4106 L/kg and the BCFk ([3]; 10 µg·L^−1, zebrafish larvae) was 7295 L/kg.

Source: article PMC12194305, “Assessing Bioconcentration and Biotransformation of BDE-47 In Vitro: The Relevance of Bioavailable and Intracellular Concentrations” (Journal of Xenobiotics, 2025)
